The experiment has as its target T1, Dimer of Gag-Pol polyprotein [489-587] (Human immunodeficiency virus 1, UniProt P12497).
T1 construct: 489-587
Description: Protease Inhibition Assay. The note with it: pH 5.5; 37 °C. The source says:
The IC50 value is the inhibitor concentration that results in 50% of HIV-1 protease activity measured by a spectrophotometric assay using a chromophoric peptide.

One may read the Ki as the dissociation constant of the complex between target and ligand, obtained from inhibition or displacement. `O=C1N(Cc2ccc(CO)cc2)[C@H](Cc2ccccc2)[C@H](O)[C@@H](O)[C@@H](Cc2ccccc2)N1Cc1ccc(CO)cc1` [(4R,5S,6S,7R)-4,7-dibenzyl-5,6-dihydroxy-1,3-bis({[4-(hydroxymethyl)phenyl]methyl})-1,3-diazepan-2-one] came in with a Ki of less than 1 nM.

Take `O=C1N(Cc2ccc(CO)cc2)[C@H](COc2ccccc2)[C@H](O)[C@@H](O)[C@@H](COc2ccccc2)N1Cc1ccc(CO)cc1` [(4R,5S,6S,7R)-5,6-dihydroxy-1,3-bis({[4-(hydroxymethyl)phenyl]methyl})-4,7-bis(phenoxymethyl)-1,3-diazepan-2-one]: the Ki is less than 1 nM.

The record behind these values is BindingDB's records for doi:10.1021/jm960728j (Uppsala University, 1997).
